Source: the NIST ThermoML archive (doi:10.1016/j.jct.2012.02.015)

Conditions: 101.33 kPa, Liquid, Alternating current cell with electrodes

[F-].[Li+] [lithium fluoride]
Conditions	electrical conductivity [S/m]
1131 K	855
1136 K	858
1151 K	868
1169 K	877
1173 K	880
1184 K	886
1190 K	888
1194 K	890
1198 K	892
1206 K	896
1210 K	897
1217 K	900
1221 K	899
1229 K	905
1232 K	907
1233 K	907
1237 K	908
1244 K	911
1245 K	911
1258 K	916
1267 K	918
1269 K	918
1283 K	923

[Br-].[K+] [potassium bromide]
Conditions	electrical conductivity [S/m]
1131 K	190
1136 K	191
1151 K	194
1169 K	196
1190 K	200
1198 K	201
1210 K	202
1221 K	203
1229 K	204
1233 K	204
1237 K	205
1245 K	205

[I-].[K+] [potassium iodide]
Conditions	electrical conductivity [S/m]
1109 K	158
1126 K	160
1143 K	161
1152 K	163
1160 K	164
1170 K	165
1176 K	165
1186 K	166
1203 K	166
1225 K	167
1236 K	167
1246 K	168
1252 K	167
1269 K	167

[Br-].[Rb+] [rubidium bromide]
Conditions	electrical conductivity [S/m]
1173 K	151
1184 K	152
1194 K	153
1206 K	154
1217 K	154
1232 K	155
1244 K	156
1258 K	157
1269 K	157

[I-].[Rb+] [rubidium iodide (RbI)]
Conditions	electrical conductivity [S/m]
1126 K	120
1154 K	122
1166 K	124
1188 K	126
1198 K	127
1210 K	128
1216 K	128
1233 K	130
1248 K	132
1260 K	133
1266 K	133
1297 K	135
1309 K	136
